Patent US4646832A, “Determining residual oil saturation by injecting salts of carbonic and halocarboxylic acids” (Shell Oil Company, priority 1985, dated 1987)
Read-outs that look alike come from different tables or passages of the source.

Key:
[1] = 50 psig, 0.05 mol/liter acid salt, 0.5 mol/liter NaCl
Excerpt: In each case, the solution was maintained at a pressure of 50 psig during each test. The pH of the solution was maintained substantially constant by adding portions of 0.1 mol/liter sodium bicarbonate solution to the system while the hydrolysis was proceeding. Each acid generator solution consisted of water containing 0.5 mol/liter sodium chloride and 0.05 mols/liter of the indicated halocarboxylic acid salt.
*^1 This is the time, in hours, required for the acid generator to be
onehalf reacted to form CO2 or acid.

[2] = Best estimate of applicable temperature range of CO2 generators (Table I); assay type: physicochemical; conditions: best estimate of the applicable temperature range as CO2 generator

With O=C(O)CBr [Bromoacetic acid] the “Half Life, t1/2” value ([1]; Test 16, 167 °F, pH 5.5) was 17.3 h, the “Half Life, t1/2” value ([1]; Test 17, 166 °F, pH 7.0) was 12.5 h and the “Half Life, t1/2” value ([1]; Test 18, 143 °F, pH 7.0) was 171.4 h. For the same compound, the “Half Life, t1/2” value ([1]; Test 19, 156 °F, pH 6.2) was 32.6 h, the “Half Life, t1/2” value ([1]; Test 20, 140 °F, pH 6.2) was 136.9 h and the “Half Life, t1/2” value ([1]; Test 21, 124 °F, pH 6.2) was 319.2 h.
In the case of O=C(O)c1ccccc1Cl [O--Chlorobenzoic acid], the “Half Life, t1/2” value ([1]; Test 12, 212 °F, pH 7.0) is reported as 3,113 hours, the “Half Life, t1/2” value ([1]; Test 13, 212 °F, pH 6.2) is reported as 2,543 hours and the “Half Life, t1/2” value ([1]; Test 14, 204 °F, pH 8.0) is reported as 3,906 hours. For the same compound, the “Half Life, t1/2” value ([1]; Test 15, 251 °F, pH 8.0) was 2,335 hours and the “Temperature Range” value [2] was over 300 °F.
In the case of O=C(O)CCCl [3-Chloropropionic acid], the “Half Life, t1/2” value ([1]; Test 1, 138 °F, pH 8.0) is reported as 43.5 h, the “Half Life, t1/2” value ([1]; Test 2, 140 °F, pH 7.0) is reported as 16.1 h and the “Half Life, t1/2” value ([1]; Test 3, 133 °F, pH 6.2) is reported as 27.9 h. For the same compound, the “Half Life, t1/2” value ([1]; Test 4, 133 °F, pH 5.5) was 30.4 h, the “Half Life, t1/2” value ([1]; Test 5, 113 °F, pH 5.5) was 114.0 h and the “Half Life, t1/2” value ([1]; Test 6, 117 °F, pH 6.2) was 95.8 h. For the same compound, the “Half Life, t1/2” value ([1]; Test 7, 114 °F, pH 7.0) was 130.1 h.
For O=C(O)C(Cl)Cl [Dichloroacetic acid], the “Half Life, t1/2” value ([1]; Test 10, 197 °F, pH 7.0) was 111.8 h and the “Half Life, t1/2” value ([1]; Test 11, 221 °F, pH 7.0) was 23.0 h.
In the case of CC(Cl)CC(=O)O (stereo not drawn) [3-Chlorobutyric acid], the “Half Life, t1/2” value ([1]; Test 22, 125 °F, pH 6.2) is reported as 13.2 h, the “Half Life, t1/2” value ([1]; Test 23, 99 °F, pH 6.2) is reported as 29.2 h and the “Half Life, t1/2” value ([1]; Test 24, 102 °F, pH 6.2) is reported as 80.0 h.
For CC(Cl)C(=O)O (stereo not drawn) [2-Chloropropionic acid], the “Half Life, t1/2” value ([1]; Test 25, 130 °F, pH 6.2) was 73.1 h and the “Half Life, t1/2” value ([1]; Test 26, 114 °F, pH 6.2) was 598.5 h.
With O=C(O)CCl [Monochloroacetic acid] the “Half Life, t1/2” value ([1]; Test 8, 182 °F, pH 7.0) was 127.9 h and the “Half Life, t1/2” value ([1]; Test 9, 198 °F, pH 7.0) was 49.4 h.
